“And” between values parts separate entries of the source, which are not always exact repeats. Equal entries are not always repeated. Where two headings read alike, the source gives them in different places.
Experiments:
[1] = Pharmacokinetic evaluation of CM4309.TsOH, CM4309.HCl and CM4309.H2O in SD rats; format: in vivo; settings: for HL_Lambda_z / AUCINF_obs / AUClast / Cmax / MRTINF_obs / Tmax / AUC(0-t) / AUC(0-inf) / MRT inf: 3 mg/kg (calculated by CM4309) intragastric, suspension in 0.5% CMC, CM4309 in plasma; for AUClast (Area Under Curve, Plasma Exposure) relative to CM4309.H2O / Cmax relative to CM4309.H2O: SD rats, 3 mg/kg intragastric, ratio to CM4309.H2O; for AUC(0-inf): read-out: AUCINF_obs; for MRT inf: read-out: MRTINF_obs
Procedure: Twelve male SD rats, weighing about 170 g, were randomly separated into […] and four rats in each group, and fasted overnight. The rats were administrated intragastric ally at a dose of 3 mg/kg (in a concentration of 1 mg/mL calculated by CM4309, and suspended in 0.5% CMC in purified water) of CM4309.TsOH, CM4309.HCl or CM4309.H2O. After administration, blood samples were collected at 0.25, 0.5, 1, 2, 4, 6, 8, 12, 24, 36 and 48 h. The blood samples were centrifuged for 5 minutes at 5000 rpm to separate the plasma. The concentration of CM4309 in plasma was measured by LC/MS/MS to compare the PK difference between CM4309 salts and CM4309 (see Table 1).

[2] = Pharmacokinetic evaluation of CM4309.TsOH and CM4309.H2O in Beagle dogs; format: in vivo; settings: for AUC(0-t) / Cmax / Tmax / AUClast: 2.5 mg/kg (calculated by CM4309) oral in capsule, 2×2 crossover, CM4309 in plasma
Procedure: Four female Beagle dogs, 7-9 months old, weighing about 8 kg, were randomly separated into two groups and two dogs in each group, and fasted overnight. The dogs were administrated orally at a dose of 2.5 mg/kg (calculated by CM4309) of CM4309.TsOH or CM4309.H2O in capsule with 2×2 crossover design. Blood samples were collected before administration and at 0.25, 0.5, 1, 2, 4, 6, 8, 12, 24, 36 and 48 h after administration. The blood samples were centrifuged for 10 minutes at 3500 rpm to separate the plasma. The concentration of CM4309 in plasma was measured by LC/MS/MS to compare the PK difference between CM4309 salts and CM4309 (see Table 2).

[3] = individual rat, hydrochloride, 3 mg/kg
[4] = male, SD, rat, plasma, po, 3 mg/kg, Mean of 4 rats
[5] = male, SD, rat, plasma, po, 3 mg/kg, Mean of 4 rats, read-out: Cmax
[6] = male, SD, rat, plasma, po, 3 mg/kg, Mean of 4 rats, read-out: Tmax
[7] = male, SD, rat, plasma, po, 3 mg/kg, individual rat
[8] = male, SD, rat, plasma, po, 3 mg/kg, individual rat, read-out: Tmax
[9] = Beagle dogs, 2.5 mg/kg oral in capsule, ratio to CM4309.H2O
[10] = individual dog, p-toluenesulfonate, 2.5 mg/kg
[11] = individual rat, p-toluenesulfonate, 3 mg/kg

## Cl.[2H]C([2H])([2H])NC(=O)c1cc(Oc2ccc(NC(=O)Nc3ccc(Cl)c(C(F)(F)F)c3)c(F)c2)ccn1 [CM4309.HCl, 4-(4-(3-(4-chloro-3-(trifluoromethyl)phenyl]ureido)-3-fluorophenoxy)-N-(methyl-d3)picolinamide hydrochloride]
[1]; Mean of 4 rats
  HL_Lambda_z: 8.25 h
[1]
  AUClast (Area Under Curve, Plasma Exposure) relative to CM4309.H2O: 8.7 folds
  Cmax relative to CM4309.H2O: 8.4 folds
[1]; [3]
  AUCINF_obs: 6634 ng·h/mL and 7151 ng·h/mL and 4379 ng·h/mL
  AUClast: 6514 ng·h/mL and 7021 ng·h/mL and 4258 ng·h/mL
  Cmax: 457 ng/mL and 460 ng/mL and 281 ng/mL
  HL_Lambda_z: 8.17 h and 7.77 h and 8.32 h and 8.74 h
  MRTINF_obs: 12.93 h and 12.58 h and 15.62 h
  Tmax: 8 h
[1]; male, SD, in vivo, po, individual rat, read-out: Tmax
  Tmax: 4 h
[1]; [4]
  AUC(0-t): 5570 ng·h/mL
  AUC(0-inf): 5690 ng·h/mL
  MRT inf: 13.8 h
[1]; [5]
  Cmax: 379 ng/mL
[1]; [6]
  Tmax: 5.5 h
[1]; [7]
  AUC(0-t): 4490 ng·h/mL
  AUC(0-inf): 4610 ng·h/mL
  MRT inf: 13.9 h
[1]; male, SD, rat, plasma, po, 3 mg/kg, individual rat, read-out: Cmax
  Cmax: 316 ng/mL
[1]; [8]
  Tmax: 6 h

## Cc1ccc(S(=O)(=O)O)cc1.[2H]C([2H])([2H])NC(=O)c1cc(Oc2ccc(NC(=O)Nc3ccc(Cl)c(C(F)(F)F)c3)c(F)c2)ccn1 [CM4309.TsOH, 4-(4-(3-(4-chloro-3-(trifluoromethyl)phenyl]ureido)-3-fluorophenoxy)-N-(methyl-d3)picolinamide p-toluenesulfonate]
[2]; [9]
  AUClast relative to CM4309.H2O: 12.1 folds
  Cmax relative to CM4309.H2O: 26 folds
[2]; female, Beagle, dog, plasma, po, 2.5 mg/kg, Mean of 4 dogs
  AUC(0-t): 4870 ng·h/mL
[2]; female, Beagle, dog, plasma, po, 2.5 mg/kg, Mean of 4 dogs, read-out: Cmax
  Cmax: 728 ng/mL
[2]; female, Beagle, dog, plasma, po, 2.5 mg/kg, individual dog
  AUC(0-t): 5240 ng·h/mL
[2]; female, Beagle, individual dog, read-out: Tmax
  Tmax: 2 h
[2]; [10]
  AUClast: 5362 ng·h/mL and 5045 ng·h/mL and 3827 ng·h/mL
  Cmax: 996 ng/mL and 437 ng/mL and 483 ng/mL
[1]; Mean of 4 rats
  HL_Lambda_z: 7.91 h
[1]
  AUClast (Area Under Curve, Plasma Exposure) relative to CM4309.H2O: 11.2 folds
  Cmax relative to CM4309.H2O: 10.7 folds
[1]; [11]
  AUCINF_obs: 5631 ng·h/mL and 7380 ng·h/mL and 10651 ng·h/mL
  AUClast: 5542 ng·h/mL and 7237 ng·h/mL and 10406 ng·h/mL
  Cmax: 312 ng/mL and 402 ng/mL and 518 ng/mL and 696 ng/mL
  HL_Lambda_z: 8.55 h and 7.37 h and 7.48 h and 8.25 h
  MRTINF_obs: 12.05 h and 12.72 h and 13.6 h
  Tmax: 4 h
[1]; [4]
  AUC(0-t): 7180 ng·h/mL
  AUC(0-inf): 7340 ng·h/mL
  MRT inf: 13.3 h
[1]; [5]
  Cmax: 482 ng/mL
[1]; [6]
  Tmax: 5.5 h
[1]; [7]
  AUC(0-t): 5540 ng·h/mL
  AUC(0-inf): 5700 ng·h/mL
  MRT inf: 14.8 h
[1]; [8]
  Tmax: 6 h

## [2H]C([2H])([2H])NC(=O)c1cc(Oc2ccc(NC(=O)Nc3ccc(Cl)c(C(F)(F)F)c3)c(F)c2)ccn1 [CM4309.H2O]
[2]; Mean of 4 dogs
  AUClast: 404 ng·h/mL
  Cmax: 28 ng/mL
  Tmax: 20 h
[2]; individual dog, 2.5 mg/kg
  AUClast: 319 ng·h/mL and 829 ng·h/mL and 243 ng·h/mL and 224 ng·h/mL
  Cmax: 34.6 ng/mL and 50 ng/mL and 11.1 ng/mL and 16.4 ng/mL
  Tmax: 24 h and 8 h
[1]; Mean of 4 rats
  AUCINF_obs: 664 ng·h/mL
  AUClast: 643 ng·h/mL
  Cmax: 45.2 ng/mL
  HL_Lambda_z: 7.62 h
  MRTINF_obs: 13.55 h
  Tmax: 6.5 h
[1]; individual rat, 3 mg/kg
  AUCINF_obs: 701 ng·h/mL and 827 ng·h/mL and 657 ng·h/mL and 470 ng·h/mL
  AUClast: 675 ng·h/mL and 806 ng·h/mL and 635 ng·h/mL and 459 ng·h/mL
  Cmax: 52.6 ng/mL and 53.3 ng/mL and 42.9 ng/mL and 31.8 ng/mL
  HL_Lambda_z: 8.73 h and 9.26 h and 6.41 h and 6.08 h
  MRTINF_obs: 14.87 h and 14.06 h and 13 h and 12.25 h
  Tmax: 6 h and 4 h and 8 h
